Paper PMC4227742 (Journal of the American Chemical Society, 2014)
Blank lines part the entries; values can stand above or below the molecule they belong to.

Assays:
Gcn5 [1] = target: T1, Gcn5 (Homo sapiens, UniProt Q92830); experiment: Competitive substrate profiling: Gcn5 labeling by probe 2 vs acyl-CoAs; assay type: binding; conditions: 2 (10 μM), acyl-CoAs (1000 μM)
Gcn5 [2] = target: T1, Gcn5; experiment: LC–MS/MS verification of Gcn5 acyltransferase activity; assay type: biochemical; conditions: LC–MS/MS analysis, Supplementary Figure S10
human pCAF = conditions: cited from earlier work
pCAF [3] = target: T2, pCAF (Homo sapiens, UniProt Q92831); experiment: Photoaffinity/click fluorescent labeling of recombinant KAT, SDS-PAGE; assay type: binding; conditions: for Fluorescent detection of pCAF at high probe concentration: 1 μM probe; for Labeling of pCAF in KAT cocktail: probe 1 μM, mixture of p300, pCAF, Mof
pCAF [4] = target: T2, pCAF; experiment: Labeling of pCAF in HEK-293 overexpression extracts; assay type: binding
pCAF [5] = target: T2, pCAF; experiment: Detection of recombinant pCAF spiked into HeLa cell proteome; assay type: binding
Mof (MYST1) = target: T3, Mof (MYST1) (Homo sapiens, UniProt Q9H7Z6); experiment: Photoaffinity/click fluorescent labeling of recombinant KAT, SDS-PAGE; assay type: binding; conditions: for Labeling of Mof in KAT cocktail: probe 1 μM, mixture of p300, pCAF
T3 sequence (Q9H7Z6 147-449): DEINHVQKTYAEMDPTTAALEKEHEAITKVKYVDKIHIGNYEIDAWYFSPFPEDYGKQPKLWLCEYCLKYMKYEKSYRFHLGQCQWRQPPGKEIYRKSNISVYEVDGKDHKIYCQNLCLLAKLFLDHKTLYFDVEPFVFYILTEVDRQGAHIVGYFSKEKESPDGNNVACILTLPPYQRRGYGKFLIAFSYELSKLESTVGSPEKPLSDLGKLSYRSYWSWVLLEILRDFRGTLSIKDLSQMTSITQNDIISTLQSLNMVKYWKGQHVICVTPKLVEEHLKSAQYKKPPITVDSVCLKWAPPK

p300 = target: T4, p300 (Homo sapiens, UniProt Q09472); experiment: as above; assay type: binding; conditions: probe 1 μM; mixture of p300, pCAF, Mof
T4 sequence (Q09472 1284-1673): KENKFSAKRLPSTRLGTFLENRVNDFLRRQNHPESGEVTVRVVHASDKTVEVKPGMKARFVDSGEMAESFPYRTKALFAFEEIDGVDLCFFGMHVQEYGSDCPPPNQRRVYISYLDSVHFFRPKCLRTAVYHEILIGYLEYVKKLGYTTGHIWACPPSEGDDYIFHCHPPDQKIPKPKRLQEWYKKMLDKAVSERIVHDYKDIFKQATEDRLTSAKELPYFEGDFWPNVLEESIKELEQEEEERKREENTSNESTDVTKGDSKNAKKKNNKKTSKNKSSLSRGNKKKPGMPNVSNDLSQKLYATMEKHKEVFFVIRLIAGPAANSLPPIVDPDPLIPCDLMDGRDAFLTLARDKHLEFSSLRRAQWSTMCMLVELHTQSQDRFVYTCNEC

pCAF [6] = target: T2, pCAF; conditions: excess competitor (100 μM), probe 2 1 μM
Mof = target: T5, Mof (Homo sapiens, UniProt Q9H7Z6); experiment: Competition of Mof labeling by probe 3; assay type: binding; conditions: excess competitor (100 μM), probe 3 1 μM
T5 sequence (Q9H7Z6 147-449): T3 sequence (Q9H7Z6 147-449)

pCAF [7] = conditions: read-out: literature IC50; cited from earlier work
[8] = probe 1–10 μM, 365 nm, click with fluorescent azide

Molecule: CCCC(=O)SCCNC(=O)CCNC(=O)[C@H](O)C(C)(C)COP(=O)(O)OP(=O)(O)OC[C@H]1O[C@@H](n2cnc3c(N)ncnc32)[C@H](O)[C@@H]1OP(=O)(O)O [butyryl-CoA]
Competition with 2 for active site occupancy of Gcn5 (Gcn5 [1]): partial antagonist
Use as substrate by Gcn5 (Gcn5 [2]): utilized

Molecule: CC(C)(COP(=O)(O)OP(=O)(O)OC[C@H]1O[C@@H](n2cnc3c(N)ncnc32)[C@H](O)[C@@H]1OP(=O)(O)O)[C@@H](O)C(=O)NCCC(=O)NCCSC(=O)CC(=O)O [malonyl-CoA]
Use as substrate by pCAF (human pCAF): not utilized as a substrate

Molecule: H3K14-CoA-BPyne [compound 2]
Relative labeling of pCAF at low probe concentration (pCAF [3]; 0.1 μM probe, clickable 2 compared with fluorescent probe 7): visibly greater labeling
Fluorescent detection of pCAF at high probe concentration (pCAF [3]): facilitate fluorescent detection
Fraction of pCAF covalently labeled (cross-linking yield) (pCAF [3]; 60 min irradiation at 365 nm on ice, gel densitometry): 33–40%
Labeling of pCAF in KAT cocktail (pCAF [3]): clear preference for specific labeling
Fluorescent labeling of purified recombinant pCAF (pCAF [3]; [8]): reacted effectively
Labeling of pCAF in HEK-293 overexpression extracts (pCAF [4]; fluorescence gel): Weak but detectable labeling
Lower limit of pCAF detection (pCAF [5]; 2 (1 μM), HeLa proteome (7 μg), gel-based): 2.5 pmols
Detection of pCAF spiked into HeLa cell proteomes (pCAF [5]; pCAF 7 pmols): capable of detecting
Labeling of Mof in KAT cocktail (Mof (MYST1)): weaker, but detectable, labeling

Molecule: CC(=O)SCCNC(=O)CCNC(=O)[C@H](O)C(C)(C)COP(=O)(O)OP(=O)(O)OC[C@H]1O[C@@H](n2cnc3c(N)ncnc32)[C@H](O)[C@@H]1OP(=O)(O)O [acetyl-CoA]
Competition with 2 for active site occupancy of Gcn5 (Gcn5 [1]): efficiently competed labeling

Other lines, results leading:

Competition with 2 for active site occupancy of Gcn5 (Gcn5 [1]): did not impede labeling
Molecule: CC=CC(=O)SCCNC(=O)CCNC(=O)[C@H](O)C(C)(C)COP(=O)(O)OP(=O)(O)OC[C@H]1O[C@@H](n2cnc3c(N)ncnc32)[C@H](O)[C@@H]1OP(=O)(O)O [crotonyl-CoA]

Competition with 2 for active site occupancy of Gcn5 (Gcn5 [1]): antagonized labeling
Use as substrate by Gcn5 (Gcn5 [2]): utilized
Molecule: CCC(=O)SCCNC(=O)CCNC(=O)[C@H](O)C(C)(C)COP(=O)(O)OP(=O)(O)OC[C@H]1O[C@@H](n2cnc3c(N)ncnc32)[C@H](O)[C@@H]1OP(=O)(O)O [propionyl-CoA]

Fluorescent detection of pCAF at high probe concentration (pCAF [3]): facilitate fluorescent detection
Molecule: TAMRA-H3K14-CoA [compound 7]

Competition of pCAF labeling by 2 in HEK-293 overexpression extracts (pCAF [4]; competitor): sensitive to competition
Molecule: H3K14-CoA [compound 5, reference compound]

Labeling of p300 in KAT cocktail (p300): fainter labeling
Labeling of pCAF in KAT cocktail (pCAF [3]): fainter labeling
Labeling of Mof in KAT cocktail (Mof (MYST1)): most strongly labeled
Fluorescent labeling of purified recombinant Mof (Mof (MYST1); [8]): reacted effectively
Molecule: H4K16-CoA-BPyne [compound 3]

Competition of interaction of pCAF with 2 (pCAF [6]): no similar effect
Competition of Mof-3 interaction (Mof): competed
Molecule: CC(=O)N[C@@H](CCCCNC(=O)CSCCNC(=O)CCNC(=O)[C@H](O)C(C)(C)COP(=O)(O)OP(=O)(O)OC[C@H]1O[C@@H](n2cnc3c(N)ncnc32)[C@H](O)[C@@H]1OP(=O)(O)O)C(N)=O [compound 4, Lys-CoA]
